In patent US20220400676A1, “HERBICIDAL COMPOUNDS” (SYNGENTA CROP PROTECTION AG, priority 2019, published 2022):

Experiments:
AMARE = assay: Comparative Test (Post-Emergence), weed; type: in vivo, Amaranthus retoflexus
Protocol: (§1) Seeds of a variety of test species are sown in standard soil in pots Amaranthus retoflexus (AMARE), Echinochloa crus-galli (ECHCG), Setaria faberi (SETFA)). After cultivation for one day (pre-emergence) or after 8 days cultivation (post-emergence) under controlled conditions in a glasshouse (at 24/16° C., day/night; 14 hours light; 65% humidity), the plants are sprayed with an aqueous spray solution derived from the formulation of the technical active ingredient in acetone/water (50:50) solution containing 0.5% Tween 20 (polyoxyethelyene sorbitan monolaurate, CAS RN 9005-64-5). Compounds are applied at 250 g/ha unless otherwise stated. The test plants are then grown in a glasshouse under controlled conditions in a glasshouse (at 24/16° C., day/night; 14 hours light; 65% humidity) and watered twice daily. After 13 days for pre- and post-emergence, the test is evaluated for the percentage damage caused to the plant. The biological activities are shown in the following table on a five-point scale (5=81-100%; 4=61-80%; 3=41-60%; 2=21-40%; 1=0-20%).

ZEAMX = assay: Comparative Test (Post-Emergence), crop; type: in vivo, corn
[1] = test system: Echinochloa crus-galli (ECHCG); assay: Post-emergence herbicidal glasshouse test; type: in vivo; settings: 250 g/ha, evaluated after 13 days
Protocol: as §1

[2] = test system: Amaranthus retoflexus (AMARE); assay: Post-emergence herbicidal glasshouse test; type: in vivo; settings: 250 g/ha, evaluated after 13 days
Protocol: as §1

Setaria faberi (SETFA) [3] = assay: Post-emergence herbicidal glasshouse test; type: in vivo; settings: 250 g/ha, evaluated after 13 days
Protocol: as §1

[4] = test system: Echinochloa crus-galli (ECHCG); assay: Pre-emergence herbicidal glasshouse test; type: in vivo; settings: 250 g/ha, evaluated after 13 days
Protocol: as §1

[5] = test system: Amaranthus retoflexus (AMARE); assay: Pre-emergence herbicidal glasshouse test; type: in vivo; settings: 250 g/ha, evaluated after 13 days
Protocol: as §1

Setaria faberi (SETFA) [6] = assay: Pre-emergence herbicidal glasshouse test; type: in vivo; settings: 250 g/ha, evaluated after 13 days
Protocol: as §1

Row | Compound | % Phytotoxicity AMARE (AMARE; rate 16 g/ha) [%] | % Phytotoxicity AMARE (AMARE; rate 63 g/ha) [%] | % Phytotoxicity AMARE (AMARE; rate 250 g/ha) [%] | % Phytotoxicity ZEAMX (ZEAMX; rate 16 g/ha) [%] | % Phytotoxicity ZEAMX (ZEAMX; rate 63 g/ha) [%] | % Phytotoxicity ZEAMX (ZEAMX; rate 250 g/ha) [%] | % Phytotoxicity AMARE (AMARE; rate 33 g/ha) [%] | % Phytotoxicity ZEAMX (ZEAMX; rate 33 g/ha) [%] | percentage damage caused to the plant, five-point scale, ECHCG [1] | percentage damage caused to the plant, five-point scale, AMARE [2] | percentage damage caused to the plant, five-point scale, SETFA (Setaria faberi (SETFA) [3]) | percentage damage caused to the plant, five-point scale, ECHCG [4] | percentage damage caused to the plant, five-point scale, AMARE [5] | percentage damage caused to the plant, five-point scale, SETFA (Setaria faberi (SETFA) [6])
1 | COc1ccnc(Oc2cccc(F)c2-c2cc(C(F)F)no2)n1 | 0 | 10 | 20 | 0 | 10 | 20 |  |  |  |  |  |  |  | 
2 | COc1cc(OC)nc(Oc2cccc(F)c2-c2cc(C(F)F)no2)n1 | 0 |  | 0 | 0 |  | 0 | 0 | 0 |  |  |  |  |  | 
3 | CNc1ncnc(Oc2cccc(F)c2-c2cc(C(F)F)no2)c1Cl [Compound 2.002] |  |  |  |  |  |  |  |  | 1 (1=0-20%) | 2 (2=21-40%) | 1 (1=0-20%) | 1 (1=0-20%) | 2 (2=21-40%) | 1 (1=0-20%)
4 | COc1cc(Oc2cccc(Br)c2-c2cc(C(F)F)no2)ncn1 [Compound 2.003] |  |  |  |  |  |  |  |  | 4 (4=61-80%) | 3 (3=41-60%) | 4 (4=61-80%) | 5 (5=81-100%) | 5 (5=81-100%) | 5 (5=81-100%)
5 | COc1cc(Oc2cccc(Cl)c2-c2cc(C(F)F)no2)ncn1 [Compound 2.004] |  |  |  |  |  |  |  |  | 4 (4=61-80%) | 4 (4=61-80%) | 4 (4=61-80%) | 5 (5=81-100%) | 5 (5=81-100%) | 5 (5=81-100%)
6 | CNc1cc(Oc2cccc(F)c2-c2cc(C(F)F)no2)ncn1 [Compound 2.005] |  |  |  |  |  |  |  |  | 2 (2=21-40%) | 2 (2=21-40%) | 2 (2=21-40%) | 2 (2=21-40%) | 2 (2=21-40%) | 2 (2=21-40%)
7 | Cc1cc(Oc2cccc(Br)c2-c2cc(C(F)F)no2)ncn1 [Compound 2.006] |  |  |  |  |  |  |  |  | 3 (3=41-60%) | 1 (1=0-20%) | 3 (3=41-60%) | 5 (5=81-100%) | 2 (2=21-40%) | 4 (4=61-80%)
8 | Cc1cc(Oc2cccc(Cl)c2-c2cc(C(F)F)no2)ncn1 [Compound 2.007] |  |  |  |  |  |  |  |  | 4 (4=61-80%) | 2 (2=21-40%) | 4 (4=61-80%) | 5 (5=81-100%) | 4 (4=61-80%) | 5 (5=81-100%)
9 | Cc1ncnc(Oc2cccc(F)c2-c2cc(C(F)F)co2)c1F [Compound 2.008] |  |  |  |  |  |  |  |  | 1 (1=0-20%) | 3 (3=41-60%) | 1 (1=0-20%) | 4 (4=61-80%) | 4 (4=61-80%) | 4 (4=61-80%)
10 | COc1cc(Oc2cccc(F)c2-c2cc(C(F)F)no2)ncn1 [Compound 2.017, 3-(difluoromethyl)-5-[2-fluoro-6-(6-methoxypyrimidin-4-yl)oxy-phenyl]isoxazole] |  |  |  |  |  |  |  |  | 4 (4=61-80%) | 4 (4=61-80%) | 4 (4=61-80%) | 5 (5=81-100%) | 5 (5=81-100%) | 5 (5=81-100%)
11 | COc1cc(Oc2cccc(F)c2-c2cc(C(F)F)no2)ncn1 [drawing 58] | 60 | 60 | 80 | 0 | 10 | 10 |  |  |  |  |  |  |  | 
